Patent US11352352B2, “Aminopyrimidine compound, preparation method therefor and use thereof” (BEIJING ADAMADLE BIOTECHNOLOGY LIMITED LIABILITY COMPANY, priority 2017, dated 2022)

Key:
Experiment in all cases: Cell proliferation inhibition experiment, CellTiter-Glo (CTG) method
Assay type in all cases: cell-based
[1] = test system: NCI-H1975; conditions: for IC50: Homo sapiens, NCI-H1975, 72 h, NCI-H1975 cells, CTG, 3 days; for A-431/NCI-H1975 Selectivity: ratio of A-431 IC50 to NCI-H1975 IC50
Procedure, shortened: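 NCI-H1975 cells with viability above 90% by trypan blue were seeded at 90 μL per well in black 96-well plates and incubated overnight at 37° C., 5% CO2. Compounds were added at nine concentrations in triplicate, and viability was measured with CellTiter-Glo luminescence on EnVision. IC50 came from non-linear S-curve fitting in GraphPad Prism 5.0.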

[2] = test system: PC-9; conditions: Homo sapiens, PC-9, 72 h, PC-9 cells, 3 days
Procedure, shortened: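 Cells in log-phase growth (viability above 90% by trypan blue) were seeded at 90 μL per well in black-walled, clear-bottom 96-well plates and incubated overnight at 37° C., 5% CO2. A T0 plate was read the next day. Test compounds were added at nine concentrations in triplicate with a solvent control. Viability was measured by CellTiter-Glo luminescence on EnVision, and IC50 came from non-linear S-curve fitting in GraphPad Prism 5.0.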

[3] = test system: A-431; conditions: Homo sapiens, A-431, 72 h, A-431 cells, 3 days
Procedure, shortened: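 For each line, compound is added at nine threefold-spaced concentrations, highest 30 μM (A-431) or 1.111 μM (NCI-H1975, PC-9), and cells grow 3 days at 37 °C. CellTiter-Glo luminescence gives survival relative to solvent control, fitted to yield IC50.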

| SMILES | IC50 [1] [nM] | IC50 [2] [nM] | IC50 [3] [nM] | A-431/NCI-H1975 Selectivity [1] |
| --- | --- | --- | --- | --- |
| C=CC(=O)Nc1cc(Nc2cc(-c3ccc4c(cnn4C)c3)ncn2)c(OC(F)F)cc1N(C)CCNC(C)(C)C [compound 120] | 8.2 | 6.7 | 598 | 73.0 |
| C=CC(=O)Nc1cc(Nc2cc(-c3ccc4c(cnn4C)c3)ncn2)c(OCC)cc1N(C)CCNC(C)(C)C [compound 121] | 40.2 | 31.1 | 2310 | 57.6 |
| C=CC(=O)Nc1cc(Nc2cc(-c3ccc4c(cnn4C)c3)ncn2)c(OC(F)F)cc1NCCN(C)C [compound 122] | 5.2 | 11.6 | 580 | 111.5 |
| C=CC(=O)Nc1cc(Nc2cc(-c3ccc4c(cnn4C)c3)ncn2)c(OCC)cc1NCCN(C)C [compound 123] | 13.7 | 15.5 | 698 | 51.0 |
| C=CC(=O)Nc1cc(Nc2cc(-c3ccc4ncsc4c3)ncn2)c(OC)cc1N(C)CCN1C[C@@H](C)N(C)[C@@H](C)C1 [compound 126] | 85 | 64.1 | 2010 | 23.7 |
| C=CC(=O)Nc1cc(Nc2cc(-c3ccc4c(cnn4C)c3)ncn2)c(OC)cc1N1CCN(C2CCN(C(C)=O)CC2)CC1 [compound 134] | 33.8 | 31.1 | 1430 | 42.4 |
| C=CC(=O)Nc1cc(Nc2cc(-c3ccc4c(cnn4C)c3)ncn2)c(OCC)cc1N(C)CCN(C)C(C)C [compound 139] | 43.1 | 57.9 | 1160 | 26.8 |
| C=CC(=O)Nc1cc(Nc2cc(-c3ccc4c(cnn4C)c3)ncn2)c(OCC)cc1N(C)CCN(C)CC [compound 140] | 11.7 | 13.8 | 987 | 84.4 |
| C=CC(=O)Nc1cc(Nc2cc(-c3ccc4c(cnn4C)c3)ncn2)c(OC(F)F)cc1N(C)CCN(C)CC [compound 141] | 8.4 | 23.1 | 539 | 64.2 |
| C=CC(=O)Nc1cc(Nc2cc(-c3ccc4c(cnn4C)c3)ncn2)c(OC(F)F)cc1N1CCC(N2C[C@@H](C)N(C)[C@@H](C)C2)CC1 [compound 146] | 10.2 | 14.9 | 800 | 78.5 |
| C=CC(=O)Nc1cc(Nc2cc(-c3ccc4c(cnn4C)c3)ncn2)c(OC(F)F)cc1N1CCC(N2CCN(C(C)C)CC2)CC1 [compound 147] | 18.4 | 24.7 | 978 | 53.2 |
| C=CC(=O)Nc1cc(Nc2cc(-c3ccc4c(cnn4C)c3)ncn2)c(OC(F)F)cc1N1CCC(N2C[C@@H](C)O[C@@H](C)C2)CC1 [compound 148] | 28.7 | 31.9 | 1350 | 46.9 |
| C=CC(=O)Nc1cc(Nc2cc(-c3ccc4c(cnn4C)c3)ncn2)c(OC(F)F)cc1N1CCC(N2CCCC2)CC1 [compound 150] | 5.3 | 19.3 | 543 | 102.5 |
| C=CC(=O)Nc1cc(Nc2cc(-c3ccc4c(cnn4C)c3)ncn2)c(OC(F)(F)F)cc1N(C)CCN(C)C [compound 151] | 58.9 | 79.9 | 2050 | 34.7 |

Further lines, with some results ahead:

| IC50 [1] [nM] | IC50 [2] [nM] | IC50 [3] [nM] | SMILES | A-431/NCI-H1975 Selectivity [1] |
| --- | --- | --- | --- | --- |
| 19.9 | 23.6 | 1060 | C=CC(=O)Nc1cc(Nc2cc(-c3ccc4c(cnn4CC)c3)ncn2)c(OC)cc1N(C)CCN1CCN(C)CC1 [compound 118] | 53.2 |
| 23.1 | 17.8 | 1250 | C=CC(=O)Nc1cc(Nc2cc(-c3ccc4c(cnn4C)c3)ncn2)c(OCC)cc1N(C)CCN1CCN(C)CC1 [compound 119] | 54.0 |
| 35.2 | 32.3 | 1470 | C=CC(=O)Nc1cc(Nc2cc(-c3ccc4ncsc4c3)ncn2)c(OC)cc1N(C)CCN1CCN(C)CC1 [compound 124] | 41.7 |
| 32.1 | 22.1 | 1580 | C=CC(=O)Nc1cc(Nc2cc(-c3ccc4c(cnn4C)c3)ncn2)c(OC)cc1N(C)CCN1C[C@@H](C)N(C)[C@@H](C)C1 [compound 125] | 49.2 |
| 45.1 | 163 | 2300 | C=CC(=O)Nc1cc(Nc2cc(-c3ccc4c(cnn4C)c3)ncn2)c(OC)cc1N(C)CCN1CCN(C2CC2)CC1 [compound 127] | 51.0 |
| 103 | 70.7 | 1370 | C=CC(=O)Nc1cc(Nc2cc(-c3ccc4ncsc4c3)ncn2)c(OC)cc1N(C)CCN1CCN(C2CC2)CC1 [compound 128] | 13.2 |
| 56.6 | 43.2 | 2310 | C=CC(=O)Nc1cc(Nc2cc(-c3ccc4c(c3)ncn4C)ncn2)c(OC)cc1N(C)CCN1CCN(C(C)=O)CC1 [compound 130] | 40.9 |
| 42.3 | 118 | 2040 | C=CC(=O)Nc1cc(Nc2cc(-c3ccc4c(c3)ncn4C)ncn2)c(OC)cc1OCCN1CCN(C)CC1 [compound 132] | 48.3 |
| 9.9 | 10.7 | 598 | C=CC(=O)Nc1cc(Nc2cc(-c3ccc4c(cnn4C)c3)ncn2)c(OC)cc1N1CCN(C2CCN(C)CC2)CC1 [compound 133] | 60.4 |
| 15.4 | 17.7 | 756 | C=CC(=O)Nc1cc(Nc2cc(-c3ccc4c(cnn4C)c3)ncn2)c(OC)cc1N1CCN(C(=O)CN(C)C)CC1 [compound 135] |  |
| 56.2 | 45.6 | 2300 | C=CC(=O)Nc1cc(Nc2cc(-c3ccc4c(cnn4C)c3)ncn2)c(OC)cc1N1CCN(CC(=O)N(C)C)CC1 [compound 136] | 41.1 |
| 4.8 | 7.6 | 597 | C=CC(=O)Nc1cc(Nc2cc(-c3ccc4c(cnn4C)c3)ncn2)c(OC)cc1N1CCC(N(CC)CC)CC1 [compound 137] |  |
| 24.5 | 32.6 | 968 | C=CC(=O)Nc1cc(Nc2cc(-c3ccc4c(cnn4C)c3)ncn2)c(OC)cc1N(C)C1CCN(C(C)C)CC1 [compound 142] | 39.5 |
| 51.6 | 23.5 | 988 | C=CC(=O)Nc1cc(Nc2cc(-c3ccc4c(cnn4C)c3)ncn2)c(OC)cc1N1CCN(C2CC2)CC1 [compound 143] | 19.2 |
| 37.1 | 33.7 | 1460 | C=CC(=O)Nc1cc(Nc2cc(-c3ccc4c(cnn4C)c3)ncn2)c(OC(F)F)cc1N1CCN(CCOC)CC1 [compound 145] | 39.3 |
| 28.4 | 674 | 1370 | C=CC(=O)Nc1cc(Nc2cc(-c3ccc4c(cnn4C)c3)ncn2)c(OC(F)F)cc1N1CCN(CC2CC2)CC1 [compound 149] | 48.2 |
